Read-outs that look alike come from different tables or passages of the source.
Tests used:
recombinant human Nav1.7 = recombinant human Nav1.7 (Homo sapiens (Human), UniProt Q15858); assay: FRET-based membrane potential assay, recombinant human sodium channel Nav1.7; format: cell-based
Summary of the method: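 Channel activation used veratridine at its EC80, set by a dilution curve each experiment, together with Leiurus scorpion venom, added 3 min after compound. Membrane-potential ratio signals from FLIPR Tetra in HEPES-buffered HBSS were fitted to a four-parameter Hill equation for percent inhibition and IC50.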

recombinant human Nav1.8 = recombinant human Nav1.8 (Homo sapiens (Human), UniProt Q9Y5Y9); assay: FRET-based membrane potential assay, recombinant human sodium channel Nav1.8; format: cell-based
recombinant human Nav1.8, sequence (Q9Y5Y9 whole entry): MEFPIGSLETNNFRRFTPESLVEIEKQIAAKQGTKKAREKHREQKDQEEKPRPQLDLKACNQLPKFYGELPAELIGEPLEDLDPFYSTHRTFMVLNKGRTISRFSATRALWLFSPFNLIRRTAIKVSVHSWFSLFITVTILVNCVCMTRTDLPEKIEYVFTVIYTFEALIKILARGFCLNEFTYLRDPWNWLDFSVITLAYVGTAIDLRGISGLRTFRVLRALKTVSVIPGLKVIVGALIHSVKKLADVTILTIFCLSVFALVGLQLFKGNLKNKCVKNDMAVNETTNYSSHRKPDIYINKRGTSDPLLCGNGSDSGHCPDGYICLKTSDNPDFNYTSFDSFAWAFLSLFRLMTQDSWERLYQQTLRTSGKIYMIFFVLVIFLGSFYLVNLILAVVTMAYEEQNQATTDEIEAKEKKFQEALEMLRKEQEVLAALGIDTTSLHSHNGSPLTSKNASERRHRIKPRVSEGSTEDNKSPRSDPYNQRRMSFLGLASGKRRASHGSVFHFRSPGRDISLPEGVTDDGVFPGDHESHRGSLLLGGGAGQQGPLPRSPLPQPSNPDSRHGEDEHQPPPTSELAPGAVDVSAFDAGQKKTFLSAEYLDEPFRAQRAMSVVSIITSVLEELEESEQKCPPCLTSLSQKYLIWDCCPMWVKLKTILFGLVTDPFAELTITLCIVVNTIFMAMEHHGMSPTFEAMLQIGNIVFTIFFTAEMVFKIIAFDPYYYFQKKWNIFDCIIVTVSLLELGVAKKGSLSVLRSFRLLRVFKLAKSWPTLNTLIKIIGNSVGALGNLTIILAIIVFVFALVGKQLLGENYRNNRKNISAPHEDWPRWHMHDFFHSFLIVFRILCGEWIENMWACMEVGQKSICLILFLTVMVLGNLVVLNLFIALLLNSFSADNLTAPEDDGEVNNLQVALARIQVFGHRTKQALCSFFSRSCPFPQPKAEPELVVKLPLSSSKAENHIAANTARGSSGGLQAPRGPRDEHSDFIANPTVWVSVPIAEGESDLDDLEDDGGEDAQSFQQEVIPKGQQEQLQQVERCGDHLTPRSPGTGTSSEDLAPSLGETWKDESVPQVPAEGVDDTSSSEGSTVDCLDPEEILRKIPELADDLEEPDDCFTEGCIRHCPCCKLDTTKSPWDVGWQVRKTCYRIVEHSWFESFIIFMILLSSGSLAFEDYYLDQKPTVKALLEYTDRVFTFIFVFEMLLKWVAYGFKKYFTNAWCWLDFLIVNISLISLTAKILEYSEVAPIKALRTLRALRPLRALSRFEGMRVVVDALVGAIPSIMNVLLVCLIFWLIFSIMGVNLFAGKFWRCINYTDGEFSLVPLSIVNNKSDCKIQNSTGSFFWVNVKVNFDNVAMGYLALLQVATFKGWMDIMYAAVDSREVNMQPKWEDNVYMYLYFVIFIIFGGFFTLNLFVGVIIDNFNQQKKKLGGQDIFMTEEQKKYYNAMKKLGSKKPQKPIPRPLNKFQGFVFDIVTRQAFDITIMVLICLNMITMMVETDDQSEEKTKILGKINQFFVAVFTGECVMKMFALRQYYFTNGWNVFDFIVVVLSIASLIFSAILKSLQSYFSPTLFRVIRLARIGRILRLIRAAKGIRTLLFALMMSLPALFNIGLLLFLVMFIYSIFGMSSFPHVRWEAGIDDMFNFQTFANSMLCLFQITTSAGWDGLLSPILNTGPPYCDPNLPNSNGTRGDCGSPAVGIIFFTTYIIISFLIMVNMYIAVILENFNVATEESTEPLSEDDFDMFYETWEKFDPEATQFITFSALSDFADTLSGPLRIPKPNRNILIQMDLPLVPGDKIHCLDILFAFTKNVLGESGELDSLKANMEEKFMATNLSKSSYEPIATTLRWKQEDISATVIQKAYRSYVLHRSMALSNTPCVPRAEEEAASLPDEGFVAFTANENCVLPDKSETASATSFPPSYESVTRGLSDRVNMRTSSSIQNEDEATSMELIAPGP

osteoarthritic rats = assay: Osteoarthritic (OA) pain induced by sodium monoiodoacetate (MIA), hind limb grip force; format: in vivo, rat; settings: Rattus norvegicus, 480 h, rat, 20 days following MIA injection, hind limb grip force, read-out: OA MPE; for inhibition in vivo at 30 mg/kg: OA dose 30 mg/kg
Description: Osteoarthritic (OA) Pain Induced by Sodium Monoiodoacetate (MIA)
Pain behavior was assessed by measurement of hind limb grip force (GF) in adult osteoarthritic rats. Male Sprague Dawley rats, obtained from Charles River Laboratories, (Wilmington, Mass.), weighing 150-175 g, were injected in the unilateral knee join with a single intra-articular injection of sodium monoiodoacetate (MIA, 3 mg/rat). All rats were tested at 20 days following MIA injection. A behavioral measure of activity-induced pain was carried out. Measurements of the peak hind limb grip force were conducted by recording the maximum compressive force (CFmax), in grams of force, exerted on a hind limb strain gauge setup, in a commercially available grip force measurement system (Columbus Instruments, Columbus, Ohio).
During testing, each rat was gently restrained by grasping it around its rib cage and then allowed to grasp the wire mesh frame attached to the strain gauge. The experimenter then moved the animal in a rostral-to-caudal direction until the grip was broken. Each rat was sequentially tested twice at an approximately 2-3 minute interval to obtain a raw mean grip force (CFmax). This raw mean grip force data was in turn converted to a maximum hindlimb cumulative compressive force (CFmax), as the grams of force/kg of body weight, for each animal.
For evaluating the compound effects, the hind limb grip force was conducted 20 days following the intra-articular injection of MIA. A group of age-matched naïve (not injected with MIA) animals was added as a comparator to the drug-dosed groups. The vehicle control response for each group of MIA-treated animals was defined as the 0% response (0% effect), whereas the naïve control group was defined as the normal response and as 100% effect. The % effect for each dose group was expressed as % return of response to normalcy, compared to the naïve group. A percent maximal possible effect (% MPE) of testing compound was calculated according to the formula: (Treatment CFmax−Vehicle CFmax)/Vehicle CFmax]×100). Higher % effect numbers indicate increased relief from the pain in the model, with 100% indicating a return to the level of response seen in normal (non-osteoarthritic) animals. All experiments evaluating drug effects in this model were conducted in a randomized blinded fashion.
The animals were housed in Association for Assessment and Accreditation of Laboratory Animal Care (AAALAC) approved facilities at AbbVie Inc. in a temperature-regulated environment under a controlled 12-hour light-dark cycle, with lights on at 6:00 a.m. Food and water were available ad libitum at all times except during testing. All testing was done following procedures outlined in protocols approved by AbbVie Inc.'s Institutional Animal Care and Use Committee.

[1] = HEK293 cells stably expressing recombinant human Nav1.8, veratridine + scorpion venom depolarization
[2] = HEK293 cells stably expressing recombinant human Nav1.7, veratridine + scorpion venom depolarization, read-out: FRET-Membrane Potential Nav1.7 IC50
[3] = read-out: FRET-Membrane Potential Nav1.7 IC50

recombinant human Nav1.7, sequence (Q15858 whole entry): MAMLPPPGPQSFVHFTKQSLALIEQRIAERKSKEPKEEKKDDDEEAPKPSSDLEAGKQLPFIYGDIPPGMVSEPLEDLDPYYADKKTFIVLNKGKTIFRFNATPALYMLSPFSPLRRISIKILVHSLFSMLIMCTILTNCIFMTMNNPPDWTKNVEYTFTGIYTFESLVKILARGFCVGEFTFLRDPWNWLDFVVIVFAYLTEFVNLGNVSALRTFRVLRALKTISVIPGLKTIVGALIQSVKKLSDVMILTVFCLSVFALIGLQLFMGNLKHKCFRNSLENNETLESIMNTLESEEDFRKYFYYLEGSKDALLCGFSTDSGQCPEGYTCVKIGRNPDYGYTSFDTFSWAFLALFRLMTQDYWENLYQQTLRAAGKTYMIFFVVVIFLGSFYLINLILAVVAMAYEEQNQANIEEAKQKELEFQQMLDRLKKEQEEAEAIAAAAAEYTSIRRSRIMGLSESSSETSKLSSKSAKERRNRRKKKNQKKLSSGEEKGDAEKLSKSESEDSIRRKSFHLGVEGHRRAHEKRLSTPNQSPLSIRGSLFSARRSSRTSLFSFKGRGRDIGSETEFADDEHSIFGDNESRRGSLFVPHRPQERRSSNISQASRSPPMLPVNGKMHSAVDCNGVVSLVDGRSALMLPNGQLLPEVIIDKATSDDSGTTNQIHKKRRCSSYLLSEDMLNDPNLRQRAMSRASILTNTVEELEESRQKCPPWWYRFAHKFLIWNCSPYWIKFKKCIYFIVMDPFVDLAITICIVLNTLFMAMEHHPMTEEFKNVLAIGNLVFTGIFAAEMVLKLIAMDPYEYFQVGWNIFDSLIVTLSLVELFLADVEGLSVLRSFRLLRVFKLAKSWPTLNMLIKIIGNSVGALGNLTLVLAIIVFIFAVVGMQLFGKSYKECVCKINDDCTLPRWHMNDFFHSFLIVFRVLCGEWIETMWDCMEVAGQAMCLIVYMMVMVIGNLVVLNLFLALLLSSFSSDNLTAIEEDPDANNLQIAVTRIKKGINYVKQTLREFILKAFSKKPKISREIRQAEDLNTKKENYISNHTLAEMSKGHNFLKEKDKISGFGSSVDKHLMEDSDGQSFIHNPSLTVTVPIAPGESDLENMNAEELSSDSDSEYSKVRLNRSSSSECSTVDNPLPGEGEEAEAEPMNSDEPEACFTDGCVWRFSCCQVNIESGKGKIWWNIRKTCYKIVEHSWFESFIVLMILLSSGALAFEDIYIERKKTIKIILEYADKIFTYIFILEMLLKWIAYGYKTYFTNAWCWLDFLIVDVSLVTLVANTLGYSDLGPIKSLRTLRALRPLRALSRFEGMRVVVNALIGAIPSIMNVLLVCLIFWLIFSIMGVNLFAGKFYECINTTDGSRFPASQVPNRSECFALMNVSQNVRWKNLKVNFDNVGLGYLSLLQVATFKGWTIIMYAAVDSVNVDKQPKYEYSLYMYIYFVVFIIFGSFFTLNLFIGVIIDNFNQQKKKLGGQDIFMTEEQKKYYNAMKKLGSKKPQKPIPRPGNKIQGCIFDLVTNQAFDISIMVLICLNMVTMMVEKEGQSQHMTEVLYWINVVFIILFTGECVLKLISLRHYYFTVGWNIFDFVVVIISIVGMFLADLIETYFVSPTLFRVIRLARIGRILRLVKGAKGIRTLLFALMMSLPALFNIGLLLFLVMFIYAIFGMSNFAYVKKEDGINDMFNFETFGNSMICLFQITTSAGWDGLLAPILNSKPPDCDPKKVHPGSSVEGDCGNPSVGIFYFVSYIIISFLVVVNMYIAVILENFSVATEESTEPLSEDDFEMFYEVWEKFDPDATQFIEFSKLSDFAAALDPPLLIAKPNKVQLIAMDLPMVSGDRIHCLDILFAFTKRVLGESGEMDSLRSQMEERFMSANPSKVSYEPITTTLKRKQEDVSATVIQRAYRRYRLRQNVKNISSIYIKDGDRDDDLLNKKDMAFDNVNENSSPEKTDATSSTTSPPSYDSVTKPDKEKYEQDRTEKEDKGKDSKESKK

| SMILES | IC50 (recombinant human Nav1.8; [1]) | IC50 (recombinant human Nav1.7; [2]) | IC50 (recombinant human Nav1.7; [3]) | other results |
| --- | --- | --- | --- | --- |
| O=C(c1ccc2cc(Oc3ccc(C(F)(F)F)cn3)ccc2n1)N1CCNCC1C(F)F (single isomer, unassigned) [Example 72, [(2S*)-2-(difluoromethyl)piperazin-1-yl](6-{[5-(trifluoromethyl)pyridin-2-yl]oxy}quinolin-2-yl)methanone] | 3840 nM | – | – | IC50 (recombinant human Nav1.7; FRET-Membrane Potential Nav1.7 IC50): 2730 nM; inhibition in vivo at 30 mg/kg (osteoarthritic rats): 11% |
| CN1CC(NC(=O)c2ccc3cc(Oc4ccc(C(F)(F)F)cn4)ccc3n2)CC1=O (single isomer, unassigned) [Example 73, N-[(3R*)-1-methyl-5-oxopyrrolidin-3-yl]-6-{[5-(trifluoromethyl)pyridin-2-yl]oxy}quinoline-2-carboxamide] | 1700 nM | 1440 nM | – | inhibition in vivo at 30 mg/kg (osteoarthritic rats): 66% |
| O=C(NCC(=O)N1CCCC1)c1ccc2cc(Oc3ccc(C(F)(F)F)cn3)ccc2n1 [Example 44, N-[2-oxo-2-(pyrrolidin-1-yl)ethyl]-6-{[5-(trifluoromethyl)pyridin-2-yl]oxy}quinoline-2-carboxamide] | – | – | – | IC50 (recombinant human Nav1.8): 937 nM; inhibition in vivo at 10 mg/kg (osteoarthritic rats; OA dose 10 mg/kg): 42% |
| O=C(c1ccc2cc(Oc3ccc(C(F)(F)F)cn3)ccc2n1)N1CCNCC(F)(F)C1 [Example 417, (6,6-difluoro-1,4-diazepan-1-yl)(6-{[5-(trifluoromethyl)pyridin-2-yl]oxy}quinolin-2-yl)methanone] | 2750 nM | – | 11500 nM | – |
| O=C1C[C@@H](NC(=O)c2ccc3cc(Oc4ccc(C(F)(F)F)cn4)ccc3n2)CCN1 [Example 512, N-[(4S)-2-oxopiperidin-4-yl]-6-{[5-(trifluoromethyl)pyridin-2-yl]oxy}quinoline-2-carboxamide] | 213 nM | – | 983 nM | – |
| O=C1C[C@H](NC(=O)c2ccc3cc(Oc4ccc(C(F)(F)F)cn4)ccc3n2)CCN1 [Example 521, N-[(4R)-2-oxopiperidin-4-yl]-6-{[5-(trifluoromethyl)pyridin-2-yl]oxy}quinoline-2-carboxamide] | 1100 nM | – | 2630 nM | – |
| CN1CCC(N(C)C(=O)c2ccc3cc(Oc4ccc(C(F)(F)F)cn4)ccc3n2)CC1=O (stereo not shown) [Example 529, N-methyl-N-(1-methyl-2-oxopiperidin-4-yl)-6-{[5-(trifluoromethyl)pyridin-2-yl]oxy}quinoline-2-carboxamide] | > 20000 nM | – | 10300 nM | – |
| O=C(NC1CC(F)(F)C1)c1ccc2cc(Oc3ccc(C(F)F)cn3)ccc2n1 [Example 580, N-(3,3-difluorocyclobutyl)-6-{[5-(difluoromethyl)pyridin-2-yl]oxy}quinoline-2-carboxamide] | 1140 nM | – | 1560 nM | – |
| O=C(c1ccc2cc(Oc3ccc(C(F)(F)F)cn3)ccc2n1)N1CCNC[C@@H]1C(F)F [Example 603, [(2R)-2-(difluoromethyl)piperazin-1-yl](6-{[5-(trifluoromethyl)pyridin-2-yl]oxy}quinolin-2-yl)methanone] | 3670 nM | – | 1950 nM | – |
| CN(CC(F)(F)F)C(=O)c1ccc2cc(Oc3ccc(C(F)(F)F)cn3)ccc2n1 [Example 616, N-methyl-N-(2,2,2-trifluoroethyl)-6-{[5-(trifluoromethyl)pyridin-2-yl]oxy}quinoline-2-carboxamide] | – | 2630 nM | – | inhibition in vivo at 30 mg/kg (osteoarthritic rats): 28% |
| O=C(c1ccc2cc(Oc3ccc(C(F)(F)F)cn3)ccc2n1)N1CC(NCC(F)(F)F)C1 [Example 621, {3-[(2,2,2-trifluoroethyl)amino]azetidin-1-yl}(6-{[5-(trifluoromethyl)pyridin-2-yl]oxy}quinolin-2-yl)methanone] | 1650 nM | 2690 nM | – | – |
| CN(CC(F)F)C(=O)c1ccc2cc(Oc3ccc(C(F)(F)F)cn3)ccc2n1 [Example 622, N-(2,2-difluoroethyl)-N-methyl-6-{[5-(trifluoromethyl)pyridin-2-yl]oxy}quinoline-2-carboxamide] | 2280 nM | – | 5400 nM | – |
| O=C(c1ccc2cc(Oc3ccc(C(F)(F)F)cn3)ccc2n1)N1CC2(CCOCC2)C1 [Example 623, 7-oxa-2-azaspiro[3.5]non-2-yl(6-{[5-(trifluoromethyl)pyridin-2-yl]oxy}quinolin-2-yl)methanone] | 3700 nM | 4910 nM | – | – |
